Results as given in patent US20230399287A1, “NOVEL COMPOUNDS” (Sitryx Therapeutics Limited, priority 2020, published 2023).

Assays:
NRF2 = NRF2 +/- GSH activation assay (DiscoverX PathHunter NRF2 translocation kit); format: cell-based; details: for Emax: normalised to dimethyl fumarate high control; for EC50: Homo sapiens, U2OS, U2OS PathHunter cells
[1] = Hepatocyte stability assay (mouse); format: in vitro ADME; details: mouse, cryopreserved hepatocytes, 10 μM compound, 60 min, read-out: T½
Method in brief: (§1)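 Cryopreserved human or mouse hepatocytes (0.5×10^6 cells/mL in Leibovitz buffer) were incubated with 10 μM compound (0.1% DMSO) at 37° C in duplicate, alongside a buffer-only control. Samples taken from 0 to 60 min were analysed by LC-MS/MS. Half-life and Clint (μL min^−1 10^−6 cells) came from the ln % remaining versus time slope.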

hepatocytes [2] = test: Hepatocyte stability assay (mouse); format: in vitro ADME; details: 10 μM compound, 60 min
Method in brief: as §1

IL-6 = test: THP-1 AlphaLISA IL-6 cytokine assay; format: cell-based; details: Homo sapiens, THP-1, differentiated THP-1 cells, LPS 24 hr then Nigericin 1 hour
Method in brief: (§2)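 THP-1 cells differentiated with PMA for 72 h, pre-incubated with compound for 30 min, primed with LPS for 24 h, then given nigericin for 1 h at 37 °C. IL-1β and IL-6 in supernatants were read by AlphaLISA. % inhibition was set against ±LPS controls and IC50 taken from concentration–response curves.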

IL-1β = test: THP-1 AlphaLISA IL-1β cytokine assay; format: cell-based; details: Homo sapiens, THP-1, differentiated THP-1 cells, LPS 24 hr then Nigericin 1 hour
Method in brief: as §2

[3] = Hepatocyte stability assay (human); format: in vitro ADME; details: human, cryopreserved hepatocytes, 10 μM compound, 60 min, read-out: T½
Method in brief: as §1

hepatocytes [4] = test: Hepatocyte stability assay (human); format: in vitro ADME; details: 10 μM compound, 60 min
Method in brief: as §1

Row | Compound | Emax (NRF2; +GSH) [%] | EC50 (NRF2; +GSH) [µM] | EC50 (NRF2; −GSH) [µM] | Emax (NRF2; −GSH) [%] | half-life at 10 μM [1] [min] | Clint (hepatocytes [2]) [μL min^−1 10^−6 cells] | IC50 (IL-6) [µM] | IC50 (IL-1β) [µM] | half-life at 10 μM [3] [min] | Clint (hepatocytes [4]) [μL min^−1 10^−6 cells]
1 | C=C(CC(=O)OCc1ccc(C(F)(F)F)cc1)C(=O)O [Example 13, 2-methylene-4-oxo-4-((4-(trifluoromethyl)benzyl)oxy)butanoic acid] | 25 | > 100 | 38.7 | 54 | 37 | 42 | > 100 | 5.9 | > 460 | <3
2 | C=C(CC(=O)OC1(c2ccc(C#CC(F)(F)F)cc2)CCC1)C(=O)O [Example 36, 2-methylene-4-oxo-4-(1-(4-(3,3,3-trifluoroprop-1-yn-1-yl)phenyl)cyclobutoxy)butanoic acid] | 90 | 8.6 | 9 | 116 | < 3 | >460 | 5.6 | > 31.6 | 112 | 12
3 | C=C(CC(=O)OC1(c2ccc(Cl)cc2)CCC1)C(=O)O [Example 8, 4-(1-(4-chlorophenyl)cyclobutoxy)-2-methylene-4-oxobutanoic acid] | 0 | > 100 | > 100 | 24 | 65 | 26 | 64.5 | 2.6 | 124 | 11
4 | C=C(CC(=O)OC1(c2ccc(C(F)(F)F)cc2)CC1)C(=O)O [Example 11, 2-methylene-4-oxo-4-(1-(4-(trifluoromethyl)phenyl)cyclopropoxy)butanoic acid] | 0 | > 100 | > 100 | 11 | 71 | 24 | > 100 | 1.4 | 217 | 6
5 | C=C(CC(=O)OC1(c2ccc(C(F)(F)F)cc2)CCCC1)C(=O)O [Example 7, 2-methylene-4-oxo-4-((1-(4-(trifluoromethyl)phenyl)cyclopentyl)oxy)butanoic acid] | 0 | > 100 | > 100 | 6 | 118 | 14 | > 100 | 3.7 | 66 | 20
6 | C/C(=C\C(=O)OC1(c2ccc(C(F)(F)F)cc2)CCC1)C(=O)O [Example 21, (E)-2-methyl-4-oxo-4-(1-(4-(trifluoromethyl)phenyl)cyclobutoxy)but-2-enoic acid] | 4 | > 100 | > 100 | 0 | 27 | 71 | 49.7 | 7.3 | 55 | 31
7 | C=C(CC(=O)OC1(c2ccc(C(F)(F)F)nn2)CCC1)C(=O)O [Example 62, 2-methylene-4-oxo-4-(1-(6-(trifluoromethyl)pyridazin-3-yl)cyclobutoxy)butanoic acid] | 4 | > 100 | > 100 | 1 | 434 | 4 | > 31.6 | 5 | > 460 | <3
